In the assay the target is T1, human GPR40 (Homo sapiens, UniProt O14842).
T1 construct: expressed in transfected cells; host or cells: CHO cells, transient co-transfection with Aequorin expression vector (Euroscreen)
Put plainly: Cell-based aequorin assay using human GPR40. The note with it: activation of human GPR40; CHO cells transfected with GPR40 and Aequorin expression vectors; aequorin luminescence, area-under-curve 2-20 seconds; 0.01% BSA or 0.625% HSA; read-out: Relative EC50. The method, then: A cell-based aequorin assay may be employed to characterize the modulatory activity of compounds on the GPR40 signaling pathway. In an exemplary assay, CHO cells are transfected in a 15 cm plated containing 14 million cells with 5 μg of GPR40 expression vector and 5 μg of Aequorin expression vector (Euroscreen) using Lipofectamine 2000 (Invitrogen). […] Trypsinization is halted with 28 mL of Hanks Buffered Salt Solution containing 20 mM Hepes (H/HBSS) and 0.01% fatty acid-free bovine serum albumin (BSA) or 0.625% fatty acid-free human serum albumin (HSA). […] Cells are gently mixed every 15 minutes. Compounds are dissolved in dimethyl sulfoxide for preparation of 10 mM stock solutions. Compounds are diluted in H/HBSS containing either 0.01% BSA or 0.625% HSA. Serial dilutions of the test compounds are prepared to determine dose response.
Aequorin luminescence measurements are made using an EG&G Berthold 96-well luminometer and the response is measured over a 20 second interval after cells and compounds were mixed. […] The EC50 (effective concentration to reach 50% maximal response) is determined from the dose response plot. […]

T1 sequence (O14842 whole entry): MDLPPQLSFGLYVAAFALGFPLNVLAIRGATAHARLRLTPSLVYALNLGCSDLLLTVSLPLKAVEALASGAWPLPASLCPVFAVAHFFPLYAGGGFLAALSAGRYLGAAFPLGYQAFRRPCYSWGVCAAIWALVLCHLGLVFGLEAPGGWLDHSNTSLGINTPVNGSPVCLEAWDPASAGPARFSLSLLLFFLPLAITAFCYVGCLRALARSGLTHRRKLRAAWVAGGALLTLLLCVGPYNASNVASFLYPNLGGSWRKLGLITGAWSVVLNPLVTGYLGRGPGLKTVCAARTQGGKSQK

Regarding `O=C(O)CC(c1ccc(OCc2cccc(-c3ccc(C(F)(F)F)cc3)c2)cc1)C1CC1` (stereo not shown) [Compound 91], the EC50 lay in the range of 1 to 10 µM.

The term EC50 denotes the concentration at which the effect is half-maximal.

The values are drawn from patent US20070142384A1, “Compounds, pharmaceutical compositions and methods for use in treating metabolic disorders” (AMGEN INC., priority 2004, published 2007).
